How the values were obtained:
[1] = tested on: rejected reaction on heterogeneous skin implantation; assay: Heterogeneous skin implantation, recipient dogs given Yoshixol intravenously; type: in vivo, dog (rabbit skin)
[2] = tested on: chicken myeloblastosis virus (AMV) reverse transcriptase; assay: AMV reverse transcriptase, amount of cDNA synthesis; type: biochemical; conditions: 0.01 μl of Yoshixol added to 25 units AMV reverse transcriptase, RNA 5 μg, PCR
Method: In order to investigate the effect on virus, changes in structure of single strand DNA, double strand DNA and mRNA of E. coli bacteriophage (1 ml of 1 mol solution), which were prepared as non-treated sample and treated sample with 4 μl of Yoshixol, were observed by scanning and transmission electron microscopes. In addition, according a general bacteriological technique, changes in proliferation and in morphological aspect (by scanning and transmission electron microscopes) of E. Coli, which was infected by single strand DNA, double strand DNA or mRNA, were investigated before and after treatment of each phage with Yoshixol. As treated samples, 4 μl of Yoshixol was added in 1 ml of each phage solution which concentration was adjusted to 1 mol. […] In addition, an effect of Yoshixol on chicken myeloblastosis virus (AMV) reverse transcriptase (Gibco Co. Getesburg, Md., USA) was investigated by measuring amount of cDNA synthesis, which was amplified by PCR of RNA(5 μg) and AMV reverse transcriptase (25 units). As treated group, 0.01 μl of Yoshixol was added to 25 units sample of the AMV reverse transcriptase. Thus, the expected production of cDNA was obtained in the non-treated group, however, the amount of cDNA production decreased to 10% of the expected one when Yoshixol was treated (referred FIG. 15).

thrombus = assay: Thrombolytic effect on thrombus, phase contrasted microscopy; type: cell-based, human or canine
Method: In order to investigate a thrombolytic effect of Yoshixol on thrombus, 1 ml of human blood or canine blood were sampled by a syringe and transferred into the Petori-schale (grainer lab. GmHB) so that thrombus formation and rouleaux formation were observed under a phase contrasted microscopy (IMT-2, Olympus Co.). Then, 1 μl of Yoshixol was added in the blood sample when all visual fields could not be discriminated as an normal individual erythrocyte by thrombus formation. Then, a thrombolytic process of the thrombus was investigated and the process was recorded to a video tape via a collar video camera (CCD-IRIS, Sony Co.). The video pictures were analyzed as a liquid phenomena by an original software of dynamic state analysis. […] And, while original form of erythrocyte was recovered, each erythrocyte was marvelously dispersed from thrombus. […] And, Yoshixol has a potential to improve circulatory hindrance which is disturbed physiological role on original blood such as fluidability by being solidability. Yoshixol can apply as thrombolytic agents as well as inhibitory agents for thrombus formation.

C=C1CC(C)(C)C=CC1=O [Yoshixol, 4,4-dimethyl-6-methylene-2-cyclohexen-1-one]
epithelialization of wounded skin ([1]; dogs, 10 μl/Kg per day intravenously for one week, 3 month after implantation): well epithelialization was found
implantation of transplanted rabbit skin ([1]; dogs, 10 μl/Kg per day of Yoshixol intravenously for one week, no antibiotics or immunosuppressants): implanted on the back of dog over 1 month without a rejection reaction and bacterial infection
behaviors of adult mongrel dog ([1]; intravenous administration, compared with before the treatment): became vigor, youthful and appetite-well
amount of cDNA production, of the expected one [2]: 10%
hemolysis due to swelling and rupturing each erythrocyte (thrombus; 1 μl of Yoshixol in 1 ml blood sample): did not occur
thrombus after adding Yoshixol (thrombus; 1 μl of Yoshixol in 1 ml blood sample with thrombus): completely individualized to each erythrocyte
